Experimental data from patent US9254299B2, “Administration of hypoxia activated prodrugs in combination with Chk1 inhibitors for treating cancer” (THRESHOLD PHARMACEUTICALS, INC., priority 2011, dated 2016).
“Also recorded” adds a separate entry of the source. Where two headings read alike, the source gives them in different places. Residues, ends and D or L forms follow the SMILES beside them. *: point of attachment. Cbz = O=C(OCc1ccccc1)*; CH2F = FC*

What was measured:
[1] = system: Hela cells; test: 3-day in vitro proliferation assay, AlamarBlue, Hela cells; type: cell-based; conditions: for anti cancer efficacy in combination with TH-302: HeLa cervical cell line
Procedure: (§1) After a wash to remove drugs, cells were incubated with fresh media at 37° C. for an additional 3 days in the presence of a Chk1 inhibitor. Cell viability was determined using AlamarBlue. For a doxorubicin group (doxorubicin also induces cell cycle arrest in the G2/M phase and was used as a non-hypoxia activated prodrug control), cells were co-treated with doxorubicin and Chk1 inhibitors for 3 days.

[2] = system: HT29 cells; test: 3-day in vitro proliferation assay, AlamarBlue, HT29 cells; type: cell-based; conditions: for anti cancer efficacy in combination with TH-302: HT-29 colon cell line
Procedure: as §1

[3] = system: H460 cells; test: 3-day in vitro proliferation assay, AlamarBlue, H460 cells; type: cell-based; conditions: for anti cancer efficacy in combination with TH-302: H460 non-small cell lung cell line; for change of activity by the presence of Chk1 inhibitors: H460, p53 wild type
Procedure: as §1

[4] = system: HT-29 tumor; test: HT29 xenograft antitumor activity; type: in vivo; conditions: HT-29 tumor-bearing mice, i.p., drug alone (TH-302 50 mg/kg QD×5/wk×2 wks or 100 mg/kg twice/wk×2 wks; AZD7762 12.5 mg/kg)
[5] = system: γH2AX; test: γH2AX immunofluorescence (DNA damage response); type: cell-based; conditions: p53−/− HT29 cells; 2 hr normoxic or hypoxic, then 4 hr; AZD7762 0.1 μM
Procedure: HT29 cells were permeabilized with 1% Triton X-100 and incubated with γH2AX monoclonal antibody for 2 hr and goat anti-mouse-FITC for 1 hr. Cells were imaged using a fluorescent microscope (Nikon TS-100).

[6] = system: HT29 cells; test: Luminescence-based caspase activity assay (Caspase Glo3/7), apoptosis; type: cell-based; conditions: for induction of apoptosis: TH-302 0-10 μM air, 0-1 μM N2, AZD7762 0.1 μM, 2 hr + 46 hr
Procedure: Induction of apoptosis was also assessed. HT29 cells were seeded at a density of 40,000 cells per well of a 24 well plate. […] A luminescence-based caspase activity assay was performed. […] To validate the specificity of apoptotic signal, the pan-caspase inhibitor ZVAD was included in the testing.

[7] = target: Chk2 (Homo sapiens, UniProt O96017); conditions: read-out: IC50 for Chk2; cited from earlier work
Chk2, sequence (O96017 whole entry): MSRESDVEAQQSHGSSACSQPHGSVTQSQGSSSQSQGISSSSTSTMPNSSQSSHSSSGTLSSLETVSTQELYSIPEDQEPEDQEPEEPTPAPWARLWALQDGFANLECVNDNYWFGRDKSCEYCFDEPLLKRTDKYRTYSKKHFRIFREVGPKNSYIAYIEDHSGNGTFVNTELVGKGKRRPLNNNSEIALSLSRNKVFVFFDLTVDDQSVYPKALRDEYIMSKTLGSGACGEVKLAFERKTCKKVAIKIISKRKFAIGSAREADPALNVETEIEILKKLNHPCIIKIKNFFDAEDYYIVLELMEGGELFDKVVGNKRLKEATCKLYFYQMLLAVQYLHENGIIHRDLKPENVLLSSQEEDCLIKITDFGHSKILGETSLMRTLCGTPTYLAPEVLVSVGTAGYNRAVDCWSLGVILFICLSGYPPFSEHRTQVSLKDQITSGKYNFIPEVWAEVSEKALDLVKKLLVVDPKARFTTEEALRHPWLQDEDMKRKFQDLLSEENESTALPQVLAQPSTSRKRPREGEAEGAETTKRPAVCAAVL

[8] = system: Du145 cells; test: 3-day in vitro proliferation assay, AlamarBlue, Du145 cells; type: cell-based; conditions: Du145, p53 heterozygous
Procedure: as §1
Appropriate Du145 and H460 cells were treated with TH-302 and Chk1 inhibitors as described in Example 1.

[9] = system: p53 deficient cells; test: Proliferation assay in p53 deficient cells (Horizon Discovery); type: cell-based
Procedure: as §1
(§2) Cells (provided by Horizon Discovery Ltd. and generated using Horizon's adeno-associated virus (AAV) technology Genesis™) were treated as described in Example 1.

[10] = system: p53 proficient cells; test: Proliferation assay in p53 proficient cells (Horizon Discovery); type: cell-based
Procedure: as §1, §2

[11] = system: Hela cells; test: Cell cycle distribution by flow cytometry; type: cell-based
Procedure: (§3) HeLa cells were treated with TH-302 and a Chk1 inhibitor as described in Example 1. Cells were harvested and analyzed for cell cycle distribution by flow cytometry and for protein expression by immunoblot.

[12] = system: Cdc2-Y15 phosphorylation; test: Immunoblot of Cdc2-Y15 phosphorylation and protein expression; type: cell-based; conditions: for Cdc2-Y15 phosphorylation / DNA damaging agent-induced increase of Cdc2-Y15 phosphorylation in the presence of the Chk1 inhibitor: HeLa; for Cdc2-Y15 phosphorylation: agent alone; for DNA damaging agent-induced increase of Cdc2-Y15 phosphorylation in the presence of the Chk1 inhibitor: with Chk1 inhibitor
Procedure: as §3

[13] = system: AA8 CHO cells; test: Cytotoxicity in HDR proficient AA8 CHO cells; type: cell-based; conditions: Cricetulus griseus
Procedure: as §1
(§4) To investigate which DNA repair system is affected by Chk-1 inhibitor-mediated enhancement of TH-302 cytotoxicity, CHO cell-based DNA repair mutant cell line pairs were utilized. The experimental details were as described in Example 1. […] HDR (homology-dependent repair) is the specific type of DNA repair capable of repairing TH-302-induced DNA damage.

[14] = system: irs1SF; test: Cytotoxicity in HDR deficient irs1SF cells; type: cell-based
Procedure: as §1, §4

[15] = system: UV41; test: Cytotoxicity in HDR deficient UV41 cells; type: cell-based
Procedure: as §1, §4

[16] = system: Rad51; test: Immunoblot of Rad51 expression; type: cell-based; conditions: HT29; samples as for the Histone H3 blot
Procedure: To explore involved signaling pathways, an immunoblot analysis was conducted. HT29 cells were seeded in p60 dishes at a density of 2×10^6 cells per dish and incubated overnight for cell attachment. […] Insoluble debris was pelleted and the protein concentration of the resulting supernatant determined using a Sigma BCA kit (St. Louis, Mo.). About 10 μg of protein from each sample were loaded onto and SDS gel and electrophoresed and then electrotransferred to a nitrocellulose membrane. Proteins were detected with an electrochemiluminescent detection system (ChemiGlow; Protein Simple, Santa Clara, Calif.) using antibodies recognizing Histone H3.
The samples were collected as described above for the Histone H3 blot. In response to TH-302, Rad51 expression levels were increased.

## NC(=O)Nc1cc(-c2cccc(F)c2)sc1C(=O)N[C@H]1CCCNC1 [AZD7762]
[1]
  anti cancer efficacy in combination with TH-302: increased anti cancer efficacy
[2]
  anti cancer efficacy in combination with TH-302: increased anti cancer efficacy
[3]
  anti cancer efficacy in combination with TH-302: not
[4]
  tumor growth: produced a growth delay
[5]
  γH2AX staining: could induce γH2AX
[6]
  induction of apoptosis: slight increase
[7]
  IC50: < 0.01 µM

## Cc1cnc(NC(=O)Nc2cc(Br)c(C)cc2OC[C@@H]2CNCCO2)cn1 [LY2603618]
[1]
  anti cancer efficacy in combination with TH-302: increased anti cancer efficacy
[2]
  anti cancer efficacy in combination with TH-302: increased anti cancer efficacy
[3]
  anti cancer efficacy in combination with TH-302: not

## Cn1c(COP(=O)(NCCBr)NCCBr)cnc1[N+](=O)[O-] [TH-302]
[1]; Hela, p53-deficient, any one of PF477736, AZD7762, LY2603618
  enhancement of TH-302 activity by the presence of a Chk1 inhibitor: 15 to 50 fold
[1]; Hela, 0.4 μM PF477736, 0.1 μM AZD7762 or 0.5 μM LY2603618, normoxia or hypoxia
  change of activity by the presence of Chk1 inhibitors: significantly enhanced
[2]; HT29, p53-deficient, any one of PF477736, AZD7762, LY2603618
  enhancement of TH-302 activity by the presence of a Chk1 inhibitor: 15 to 50 fold
[2]; HT29, 0.4 μM PF477736, 0.1 μM AZD7762 or 0.5 μM LY2603618, normoxia or hypoxia
  change of activity by the presence of Chk1 inhibitors: significantly enhanced
[3]
  change of activity by the presence of Chk1 inhibitors: not enhanced; also recorded: not affected
[8]
  change of activity by the presence of Chk1 inhibitors: not enhanced
[9]
  change of activity by co-treatment with a Chk1 inhibitor: significantly enhanced
[10]
  change of activity by co-treatment with a Chk1 inhibitor: not
[11]; agent alone
  cell cycle arrest: concentration-dependent cell cycle arrest at G2/M
[11]; with Chk1 inhibitor
  TH-302-mediated G2/M arrest in the presence of the Chk1 inhibitor: abrogated
[12]
  expression of Cdc-2, Myt1 and Chk1: does not affect
  Cdc2-Y15 phosphorylation: upregulate phosphorylation of Cdc2-Y15
  DNA damaging agent-induced increase of Cdc2-Y15 phosphorylation in the presence of the Chk1 inhibitor: completely eliminated
[4]
  tumor growth: produced a growth delay
[5]
  γH2AX staining: could induce γH2AX
[6]
  induction of apoptosis: did not induce apoptosis
[13]; AA8, N2, read-out: IC50 of TH-302 monotherapy
  IC50: 3.2 µM
[13]; AA8, N2, with AZD7762 (0.1 μM), read-out: TH-302 IC50
  IC50: 1.2 µM
[13]; AA8, air, read-out: IC50 of TH-302 monotherapy
  IC50: 490 µM
[13]; AA8, air, with AZD7762 (0.1 μM), read-out: TH-302 IC50
  IC50: 260 µM
[14]; N2, read-out: IC50 of TH-302 monotherapy
  IC50: 0.4 µM
[14]; N2, with AZD7762 (0.1 μM), read-out: TH-302 IC50
  IC50: 0.3 µM
[14]; air, read-out: IC50 of TH-302 monotherapy
  IC50: 54 µM
[14]; air, with AZD7762 (0.1 μM), read-out: TH-302 IC50
  IC50: 63 µM
[15]; UV41, N2, with AZD7762 (0.1 μM), read-out: TH-302 IC50
  IC50: 0.06 µM
[15]; UV41, N2, read-out: IC50 of TH-302 monotherapy
  IC50: 0.07 µM
[15]; UV41, air, with AZD7762 (0.1 μM), read-out: TH-302 IC50
  IC50: 26 µM
[15]; UV41, air, read-out: IC50 of TH-302 monotherapy
  IC50: 29 µM
[16]
  Rad51 expression levels: increased

## CC(NC(=O)C(NC(=O)OCc1ccccc1)C(C)C)C(=O)NC(CC(=O)O)C(=O)CF (stereo not drawn) [ZVAD] (Cbz-Val-Ala-Asp-CH2F; configuration not given here)
[6]; added to TH-302 and AZD7762
  apoptotic signal generated by the combination therapy: reduced the apoptotic signal

## COc1cccc2c1C(=O)c1c(O)c3c(c(O)c1C2=O)C[C@@](O)(C(=O)CO)C[C@@H]3O[C@H]1C[C@H](N)[C@H](O)[C@H](C)O1 [doxorubicin, reference compound]
[3]
  change of activity by the presence of Chk1 inhibitors: lack of enhanced activity
[8]
  change of activity by the presence of Chk1 inhibitors: lack of enhanced activity
[12]
  Cdc2-Y15 phosphorylation: upregulate phosphorylation of Cdc2-Y15
  DNA damaging agent-induced increase of Cdc2-Y15 phosphorylation in the presence of the Chk1 inhibitor: completely eliminated

## PF477736
[1]
  anti cancer efficacy in combination with TH-302: increased anti cancer efficacy
[2]
  anti cancer efficacy in combination with TH-302: increased anti cancer efficacy
[3]
  anti cancer efficacy in combination with TH-302: not
